From US9988377B2, “Small molecule inducers of GDNF as potential new therapeutics for neuropsychiatric disorders” (THE TRUSTEES OF COLUMBIA UNIVERSITY IN THE CITY OF NEW YORK, priority 2011, dated 2018)
Where two headings read alike, the source gives them in different places.

Tests used:
[1] = system: GDNF release from C6 cells; assay: GDNF releasing potency assay (dose-response in C6 cells); assay type: cell-based; conditions: 0.1-50 uM, concentration giving 50% of maximal GDNF release
Protocol: Four compounds were selected for determination of GDNF releasing potency. The EC50 value (Table 3) is defined as the concentration of the compound at which 50% of maximal GDNF release is obtained. The C6 cells were incubated with the selected compounds over a range of concentrations (0.1, 1, 5, 10, 20, 30 and 50 uM for each compound) and the amount of released GDNF at each concentration was via examing the dose-dependent release. A dose-response curve was constructed and the EC50 value was obtained by fitting this curve using GraphPad Prism software.

[2] = system: GDNF release from C6 glioma cells; assay: GDNF in-situ ELISA in C6 glioma cells; assay type: cell-based; conditions: 10 μM compound, 48-hour incubation, fold over control release, corrected for pre-treatment release; for fold induction at 10 µM: C6 glioma, 48 h, read-out: Fold-Increase of GDNF Concentration
Protocol: The GDNF Emax Immunoassay System from Promega (Madison, Wis.) was used to determine small molecule induced GDNF release from C6 glioma cells (ATCC, Manassas, Va.) with the following protocol. A 96-well ELISA plate was sterilized with UV for 30 minutes. The plate was coated with 100 μl/well of the anti-GDNF monoclonal antibody solution in carbonate coating buffer prepared per the manufacturer's instructions, and incubated overnight at 4° C. The antibody coating buffer was removed from the plate, which was then blocked according to the instructions in the kit. The plate was then incubated with 200 μl/well complete growth medium ([…], 5% FBS, 1% penicillin/streptomycin) for 2×1 h at rt to remove residue of the blocking buffer. After these washes were complete, fresh culture media was added to the wells. C6 cells were seeded at a density of 11,000 cells/well, with a total volume of approximately 150 μl in each well. The plate was incubated at 37° C. in an atmosphere containing 5% CO2. After 24 hours, complete growth medium was replaced with low serum medium (98.5% DMEM, 0.5% FBS, 1% penicillin/streptomycin) and the plate was incubated overnight for cellular synchronization. On the following day, cells were treated with experimental compounds for the indicated time. We used 10 μM concentrations of the tested compounds during a 48-hour incubation. Simultaneously with initiation of treatment, cells were removed from pre-treatment control wells with 5×200 μL washes of TBST (to control for basal GDNF release before the treatment period), and low-serum medium was added to these wells. 6 hours prior to stopping treatment with experimental compounds, the GDNF standard was added to the plate per the manufacturer's instructions. To terminate the treatment, the plate was washed extensively with 200 μl/well TBST washing buffer 5 times, which removed the cells. GDNF release for each well was measured according to GDNF Emax Immunoassay system instructions, and a plate reader was used to measure absorbance at 450 nm. Total GDNF release is calculated from the standard curve using Microsoft Excel. The listed values in Table 1 are presented as fold-increase of release of GDNF over control release of GDNF, corrected for pre-treatment release by subtracting from all values the mean amount of GDNF released in pre-treatment control wells. Statistical significance was determined using the Student's t-test.

alcohol intake [3] = conditions: rats; effect dependent on induction of GDNF in the VTA; cited from earlier work
alcohol intake [4] = conditions: mice; effect dependent on induction of GDNF in the VTA; cited from earlier work
[5] = Rattus norvegicus, C6, C6 cells

CCC1CC2C=CC1N(CCc1c[nH]c3ccccc13)C2 (racemic) [Compound 10a, exo-2-[2-(1H-indol-3-yl)ethyl]-7-ethyl-2-azabicyclo[2.2.2]oct-5-ene]
EC50 [1, 5]: 10.2 ± 0.3 µM
Fold-Increase of GDNF Concentration [2]: 3.2 ± 0.2 fold

CCC1CC2C=CC1N(CCc1c[nH]c3ccccc13)C2 (racemic) [Compound 12a, endo-2-[2-(1H-indol-3-yl)ethyl]-7-ethyl-2-azabicyclo[2.2.2]oct-5-ene]
EC50 ([1]; C6 cells): 18.2 ± 0.2 µM
fold induction at 10 µM [2]: 2 ± 0.1

CCC1CC2C=CC1N(CCc1c[nH]c3ccc(C(F)(F)F)cc13)C2 (racemic) [Compound 12f, endo-7-ethyl-2-[2-(5-trifluoromethyl-1H-indol-3-yl)ethyl]-2-azabicyclo[2.2.2]oct-5-ene]
fold induction at 10 µM [2]: 2

CCC1CC2C=CC1N(CCc1coc3ccccc13)C2 (racemic) [Compound 12g, endo-2-[2-(benzofuran-3-yl)ethyl]-7-ethyl-2-azabicyclo [2.2.2]oct-5-ene]
EC50 ([1]; C6 cells): 3.6 ± 0.1 µM
EC50 [1, 5]: 3.3 µM
fold induction at 10 µM [2]: 2.9 ± 0.1

CCC1CC2C=CC1N(CCc1c[nH]c3ccc(F)cc13)C2 (racemic) [Compound 12h, endo-7-ethyl-2-[2-(5-fluoro-1H-indol-3-yl)ethyl]-2-azabicyclo[2.2.2]oct-5-ene]
EC50 [1, 5]: 3.3 µM
fold induction at 10 µM [2]: 3.1 ± 0.2

CCC1CC2C=CC1N(CCc1nc3ccccc3[nH]1)C2 (racemic) [Compound 12l, endo-2-[2-(1H-benzo[d]imidazol-2-yl)ethyl]-7-ethyl-2-azabicyclo[2.2.2]oct-5-ene]
fold induction at 10 µM [2]: 1.5

CCC1CC2CCC1N(CCc1c[nH]c3ccccc13)C2 (racemic) [Compound 13a, endo-2-[2-(1H-indol-3-yl)ethyl]-7-ethyl-2-azabicyclo [2.2.2]octane]
fold induction at 10 µM [2]: 2

CCC1CC2CCC1N(CCc1c[nH]c3ccc(F)cc13)C2 (racemic) [Compound 13b, endo-7-ethyl-2-[2-(5-fluoro-1H-indol-3-yl)ethyl]-2-azabicyclo [2.2.2]octane]
fold induction at 10 µM [2]: 2

C1=CC2CCC1CN2CCc1c[nH]c2ccccc12 (racemic) [Compound 18a, 2-[2-(1H-indol-3-yl)ethyl]-2-azabicyclo[2.2.2]oct-5-ene]
fold induction at 10 µM [2]: 1.6

C1=CC2CCC1CN2Cc1c[nH]c2ccccc12 (racemic) [Compound 18b, 2-[(1H-indol-3-yl)methyl]-2-azabicyclo[2.2.2]oct-5-ene]
fold induction at 10 µM [2]: 1.6 ± 0.1

CCOC(=O)C1CC2C=CC1N(CCc1c[nH]c3ccccc13)C2 (racemic) [Compound 21, 7-exo-ethoxycarbonyl-2-[2-(1H-indol-3-yl)ethyl]-2-azabicyclo[2.2.2]oct-5-ene]
fold induction at 10 µM [2]: 1

CCOC(=O)C1CC2C=CC1N(CCc1c[nH]c3ccccc13)C2 (racemic) [Compound 22, 7-endo-ethoxycarbonyl-2-[2-(1H-indol-3-yl)ethyl]-2-azabicyclo[2.2.2]oct-5-ene]
Fold-Increase of GDNF Concentration [2]: 2.0 ± 0.0 fold

CC[C@H]1C[C@H]2C[C@H]3c4[nH]c5ccc(O)cc5c4CCN(C2)[C@@H]13 [noribogaine]
self-administration and reinstatement of alcohol intake (alcohol intake [3]): reduce self-administration and reinstatement of alcohol intake
self-administration and reinstatement of alcohol intake (alcohol intake [4]): reduce self-administration and reinstatement of alcohol intake

ibogaine
self-administration and reinstatement of alcohol intake (alcohol intake [3]): reduce self-administration and reinstatement of alcohol intake
self-administration and reinstatement of alcohol intake (alcohol intake [4]): reduce self-administration and reinstatement of alcohol intake
